Activity calls are given as the source filed them. The calls are words filed in the database; no cut-off is given here.
Legend:
[1] = tested on: Mus musculus; test: Antioxidant activity in high-fat/high-sugar diet and CCl4-induced nonalcoholic steatohepatitis male C57BL/6 mouse assessed as increase in SOD1 mRNA expression at 100 mg/kg, po administered for 4 weeks; type: functional, organism-based
[2] = tested on: Mus musculus; test: Protection against CCl4-induced liver fibrosis in male C57BL/6 mouse assessed as decrease in hepatic hydroxyproline content at 100 mg/kg […]; type: functional, organism-based
[3] = tested on: Mus musculus; test: Anti-NASH activity in high-fat/high-sugar diet and CCl4-induced nonalcoholic steatohepatitis male C57BL/6 mouse assessed as decrease in F4/80 expression at 100 mg/kg, po administered for 4 weeks; type: functional, organism-based
[4] = tested on: Mus musculus; test: Anti-fibrotic activity in high-fat/high-sugar diet and CCl4-induced nonalcoholic steatohepatitis male C57BL/6 mouse assessed as decrease in TGF-beta mRNA expression at 100 mg/kg, po administered for 4 weeks; type: functional, organism-based
[5] = tested on: Mus musculus; test: Anti-inflammatory activity in high-fat/high-sugar diet and CCl4-induced nonalcoholic steatohepatitis male C57BL/6 mouse assessed as decrease in IL-6 mRNA expression at 100 mg/kg, po administered for 4 weeks; type: functional, organism-based
[6] = tested on: Mus musculus; test: Anti-inflammatory activity in high-fat/high-sugar diet and CCl4-induced nonalcoholic steatohepatitis male C57BL/6 mouse assessed as decrease in IL-1beta mRNA expression at 100 mg/kg, po administered for 4 weeks; type: functional, organism-based
[7] = tested on: Mus musculus; test: Antioxidant activity in high-fat/high-sugar diet and CCl4-induced nonalcoholic steatohepatitis male C57BL/6 mouse assessed as increase in catalase mRNA expression at 100 mg/kg, po administered for 4 weeks; type: functional, organism-based
[8] = tested on: Mus musculus; test: Anti-fibrotic activity in high-fat/high-sugar diet and CCl4-induced nonalcoholic steatohepatitis male C57BL/6 mouse assessed as decrease in COL1A1 mRNA expression at 100 mg/kg, po administered for 4 weeks; type: functional, organism-based
[9] = Half-life in rat liver microsomes in presence of NADPH measured by LC/MS analysis; type: ADME, Microsome
[10] = tested on: Mus musculus; test: Anti-NASH activity in high-fat/high-sugar diet and CCl4-induced nonalcoholic steatohepatitis male C57BL/6 mouse assessed as decrease in SCD1 mRNA expression at 100 mg/kg, po administered for 4 weeks; type: functional, organism-based
[11] = tested on: Mus musculus; test: Anti-NASH activity in high-fat/high-sugar diet and CCl4-induced nonalcoholic steatohepatitis male C57BL/6 mouse assessed as increase in HDL level at 100 mg/kg, po administered for 4 weeks; type: functional, organism-based
[12] = target: T1, Peroxisome proliferator-activated receptor alpha (Homo sapiens, UniProt Q07869); test: Agonist activity at human PPARalpha measured by dual luciferase reporter gene assay
T1 sequence (Q07869 whole entry): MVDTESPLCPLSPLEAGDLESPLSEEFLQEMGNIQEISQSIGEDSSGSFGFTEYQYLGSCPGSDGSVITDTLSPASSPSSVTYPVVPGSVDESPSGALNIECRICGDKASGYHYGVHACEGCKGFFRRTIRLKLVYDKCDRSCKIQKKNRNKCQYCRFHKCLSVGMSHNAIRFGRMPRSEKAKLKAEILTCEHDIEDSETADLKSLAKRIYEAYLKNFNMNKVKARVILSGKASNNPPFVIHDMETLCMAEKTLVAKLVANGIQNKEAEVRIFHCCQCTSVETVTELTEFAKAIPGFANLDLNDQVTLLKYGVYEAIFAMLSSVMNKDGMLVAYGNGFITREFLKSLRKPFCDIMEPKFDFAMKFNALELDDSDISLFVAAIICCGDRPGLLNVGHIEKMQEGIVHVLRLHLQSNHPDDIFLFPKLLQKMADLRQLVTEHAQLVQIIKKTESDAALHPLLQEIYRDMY

[13] = Acute toxicity in ICR mouse assessed as change in serum TBIL level at 500 mg/kg, IG; type: organism-based; conditions: in vivo, po
[14] = target: T2, Peroxisome proliferator-activated receptor delta (Homo sapiens, UniProt Q03181); test: Agonist activity at human PPARdelta measured by dual luciferase reporter gene assay
T2 sequence (Q03181 whole entry): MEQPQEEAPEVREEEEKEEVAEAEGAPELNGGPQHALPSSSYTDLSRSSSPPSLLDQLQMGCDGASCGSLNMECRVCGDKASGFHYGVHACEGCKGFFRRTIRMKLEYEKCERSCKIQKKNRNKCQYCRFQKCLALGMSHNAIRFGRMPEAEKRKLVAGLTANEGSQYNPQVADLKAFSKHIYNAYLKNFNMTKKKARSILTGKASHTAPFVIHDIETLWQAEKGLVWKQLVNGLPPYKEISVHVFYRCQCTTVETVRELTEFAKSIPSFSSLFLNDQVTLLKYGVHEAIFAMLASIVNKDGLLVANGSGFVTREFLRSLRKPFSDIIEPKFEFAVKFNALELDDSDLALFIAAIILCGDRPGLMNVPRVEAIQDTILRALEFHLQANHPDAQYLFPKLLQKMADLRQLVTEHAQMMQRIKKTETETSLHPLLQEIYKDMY

[15] = tested on: Mus musculus; test: Anti-NASH activity in high-fat/high-sugar diet and CCl4-induced nonalcoholic steatohepatitis male C57BL/6 mouse assessed as decrease in liver non-esterified fatty acid contents at 100 mg/kg, po administered for 4 weeks; type: functional, organism-based
[16] = Acute toxicity in ICR mouse assessed as change in serum CKMB level at 500 mg/kg, IG; type: organism-based; conditions: in vivo, po
[17] = Clearance in rat liver microsomes in presence of NADPH measured by LC/MS analysis; type: ADME, Microsome; conditions: read-out: CLH
[18] = tested on: Mus musculus; test: Anti-NASH activity in high-fat/high-sugar diet and CCl4-induced nonalcoholic steatohepatitis male C57BL/6 mouse assessed as decrease in hepatic TG level at 100 mg/kg, po administered for 4 weeks; type: functional, organism-based
[19] = tested on: Mus musculus; test: Anti-fibrotic activity in high-fat/high-sugar diet and CCl4-induced nonalcoholic steatohepatitis male C57BL/6 mouse assessed as decrease in TIMP-1 mRNA expression at 100 mg/kg, po administered for 4 weeks; type: functional, organism-based
[20] = tested on: Mus musculus; test: Anti-inflammatory activity in high-fat/high-sugar diet and CCl4-induced nonalcoholic steatohepatitis male C57BL/6 mouse assessed as decrease in TNF-alpha mRNA expression at 100 mg/kg, po administered for 4 weeks; type: functional, organism-based
[21] = tested on: Mus musculus; test: Protection against liver fibrosis in high-fat/high-sugar diet and CCl4-induced nonalcoholic steatohepatitis male C57BL/6 mouse assessed as decrease in collagen area at 100 mg/kg, po administered for 4 weeks; type: functional, organism-based
[22] = Acute toxicity in ICR mouse assessed as change in serum DBIL level at 500 mg/kg, IG; type: organism-based; conditions: in vivo, po
[23] = tested on: Mus musculus; test: Protection against CCl4-induced liver fibrosis in male C57BL/6 mouse assessed as decrease in collagen area in liver at 100 mg/kg measured by masson staining; type: functional, organism-based
[24] = target: Free fatty acid receptor 1 (Homo sapiens, UniProt O14842); test: Agonist activity at human FFA1 expressed in CHO cells measured by FLIPR assay; type: functional, cell-based
Free fatty acid receptor 1, sequence (O14842 whole entry): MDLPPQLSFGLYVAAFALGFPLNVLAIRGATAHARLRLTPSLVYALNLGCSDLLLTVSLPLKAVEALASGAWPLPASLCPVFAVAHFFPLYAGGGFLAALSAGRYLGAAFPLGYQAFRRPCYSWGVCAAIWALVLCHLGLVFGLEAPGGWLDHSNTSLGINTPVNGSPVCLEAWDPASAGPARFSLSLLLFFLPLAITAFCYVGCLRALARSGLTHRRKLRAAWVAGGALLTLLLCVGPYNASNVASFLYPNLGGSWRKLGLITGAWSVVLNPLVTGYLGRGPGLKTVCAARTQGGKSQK

[25] = Acute toxicity in ICR mouse assessed as change in serum urea level at 500 mg/kg, IG; type: organism-based; conditions: in vivo, po
[26] = Acute toxicity in ICR mouse assessed as change in serum creatinine level at 500 mg/kg, IG; type: organism-based; conditions: in vivo, po
[27] = tested on: Mus musculus; test: Anti-NASH activity in high-fat/high-sugar diet and CCl4-induced nonalcoholic steatohepatitis male C57BL/6 mouse assessed as decrease in serum TG level at 100 mg/kg, po administered for 4 weeks; type: functional, organism-based

## COc1ccc(/C=C/c2cc(OC)cc(OCc3ccc(OCC(=O)O)c(F)c3)c2)cc1
[1]
  Activity: Active
[2]
  Activity: Active
[3]
  Activity: Active
[4]
  Activity: Active
[5]
  Activity: Active
[6]
  Activity: Active
[7]
  Activity: Active
[8]
  Activity: Active
[9]
  half-life: 51.2 min
[10]
  Activity: Active
[11]
  Activity: Active
[12]
  EC50: 8.5 µM
[13]
  Activity: Non-Toxic
[14]
  EC50: 4.8 µM
[15]
  Activity: Active
[16]
  Activity: Non-Toxic
[17]
  microsomal CLint: 27.1 µL/min/mg
[18]
  Activity: Active
[19]
  Activity: Active
[20]
  Activity: Active
[21]
  Activity: Active
[22]
  Activity: Non-Toxic
[23]
  Activity: Active
[24]
  EC50: 1.5 µM
[25]
  Activity: Non-Toxic
[26]
  Activity: Non-Toxic
[27]
  Activity: Active
